# Data taken from article PMC3989207, “Subchronic Toxicological Study of Two Artemisinin Derivatives in Dogs” (PLoS ONE, 2014).
# Read-outs that look alike come from different tables or passages of the source.
# What was measured:
# [1] = test system: beagle dogs; assay: Ultra-structural examination of liver, kidney and heart by transmission electron microscopy; assay type: in vivo, dog; details: weeks 4, 8 and 13; TEM
# Experimental: (§1) The first day of treatment was regarded as day one in the study. […] Oral administration was performed about 2 h after feeding. ARM was administered by a bolus intramuscular infusion through a 25-gauge needle at a constant volume of 2 ml kg^−1 once a day into the gluteal and infraspinous muscles. Two dogs of each sex from each group were allowed to recover without further treatment for an additional 4 weeks.
# Termination of treatment was scheduled to occur on weeks 4, 8 (two interim necropsies) and 13, followed by a 4-week recovery period. For pathological examinations, the animals were euthanized within 24 h of the final drug administration with sodium pentobarbital, followed by exsanguination via the femoral artery. A gross necropsy was performed, including a thorough visual examination of all the internal organs. Weights were obtained for the brain, heart, liver, spleen, lung, kidneys, adrenals, thyroid/parathyroids, thymus, pancreas and ovaries/testes/prostate, and organ-to-body weight ratios were calculated. For each animal, representative samples from approximately 48 organs and tissues were taken and fixed in neutral buffered 10% formalin, except for the sternum, which was retained in Helly’s fixative (1000 ml distilled water, 25 g potassium dichromate, 10 g sodium sulfate, 50 g mercuric chloride, 50 ml 40% formaldehyde). […]
# [2] = test system: beagle dogs; assay: Hematology in the 13-week repeated-dose dog study; assay type: in vivo
# Experimental: as §1
# (§2) Blood samples were collected from the femoral vein of each dog prior to treatment and every 2 weeks after the first day of treatment. Hematology parameters were measured using an automated hematology analyzer (Sysmex, XT-2000iv, Toa Medical Electronics Co. Ltd., Kobe, Japan) using standard methods. Test parameters included hemoglobin (Hb) levels, the hematocrit (Hct) fraction, erythrocyte (RBC) count, leukocyte (WBC) count, neutrophilic granulocyte fraction (NE%), monocyte fraction (MO%), lymphocyte levels (LY%), platelet count (PLT), reticulocyte count (RET%) and RBC morphology. The following clinical chemistry parameters were measured using a Hitachi-7180 Chemistry Analyzer (High-Technologies Corporation, Tokyo, Japan) and standard methods: glucose, blood urea nitrogen, inorganic phosphorus, creatinine, total protein, albumin, calcium, aspartate aminotransferase (AST), alanine aminotransferase, alkaline phosphatase, total bilirubin, creatine kinase (CK), sodium, potassium and chloride.
# The differential granulocytic and erythrocytic series (erythroid, myeloid blast cell count and the red ratio) were determined manually from blood smears.
# [3] = parameters: method as in Teja-Isavadharm et al. (1996); details: after oral administration compared with i.m. injection of ARM in an oil-based vehicle; ref Teja-Isavadharm et al. (1996); cited from earlier work
# [4] = Toxicokinetic analysis of plasma drug levels (HPLC); assay type: in vivo, dog; details: both sexes, beagle, dog, plasma, other: ART p.o., ARM i.m., 6 mg/kg, ARM i.m.; for AUC: 6 mg kg^−1 daily, ART p.o., dog plasma
# Experimental: as §1
# For toxicokinetic analysis, blood samples were collected on weeks 1, 2, 4, 8 and 13 at 0 (before dosing), 0.5, 1, 2, 4, 8, 12 and 24 h after dosing. Approximately 1 ml blood was drawn from the antebrachial, cephalic or jugular vein of three animals of each sex per time point and deposited into heparinized tubes for immediate centrifugation at 3000 rpm at 4°C for 10 min. The plasma was then immediately transferred to 2 ml polypropylene tubes and stored on dry ice. Samples were stored at −80°C until HPLC analysis.
# [5] = parameters: method as in PMID 11060779; details: cited from earlier work
# [6] = test system: beagle dogs; assay: Pathologic (histopathological) examination of organs, brain and cardiac conduction system; assay type: in vivo, dog
# Experimental: as §1
# Termination of treatment was scheduled to occur on weeks 4, 8 (two interim necropsies) and 13, followed by a 4-week recovery period. For pathological examinations, the animals were euthanized within 24 h of the final drug administration with sodium pentobarbital, followed by exsanguination via the femoral artery. A gross necropsy was performed, including a thorough visual examination of all the internal organs. Weights were obtained for the brain, heart, liver, spleen, lung, kidneys, adrenals, thyroid/parathyroids, thymus, pancreas and ovaries/testes/prostate, and organ-to-body weight ratios were calculated. For each animal, representative samples from approximately 48 organs and tissues were taken and fixed in neutral buffered 10% formalin, except for the sternum, which was retained in Helly’s fixative (1000 ml distilled water, 25 g potassium dichromate, 10 g sodium sulfate, 50 g mercuric chloride, 50 ml 40% formaldehyde). Histopathological sections of all samples were prepared by embedding in paraffin wax, multiple-sectioning and staining with hematoxylin and eosin (HE). Samples of the left ventricular myocardium, right lateral hepatic lobe and right kidney from two animals of each sex from each group were fixed immediately after exsanguination in 2.5% glutaraldehyde, post-fixed in 1.0% osmium tetroxide, and embedded in plastic. Ultrathin liver, kidney and heart sections were examined with a Hitachi H-600 transmission electron microscope (TEM). All other tissues were examined by light microscopy.
# After removal, the cardiac conduction system, including the sinoatrial node (SAN) and atrioventricular node (AVN), were selected by the Palate method. The brain was sectioned at multiple transverse levels to obtain susceptible brain regions. To improve the definition of the brain lesions, toluidine stains were applied on selected duplicate sections, and all preparations were examined under a light microscope. For pathologic examinations, degenerative neurons were evaluated on three randomly selected brain sections. The adjacent fields of neurons in each selected section were counted using a microscope at a magnification of 200×. […] The severity of the neuropathological lesions was defined as follows: the total number of neuropathological lesions per section area yielded a severity score from 0 to 4, where 0 = unaffected, 1 = minimally affected neurons with one degenerative cell per section, 2 = two degenerative cells per section, 3 = three degenerative cells per section and 4 = multiple degenerative areas per section.
# [7] = test system: beagle dogs; assay: Electrocardiography in the 13-week repeated-dose dog study; assay type: in vivo; details: 6 mg kg^-1 per day p.o.; weeks 3 and 5 in males, weeks 5–9 in females (p<0.01), late stages (p<0.05)
# Experimental: as §1
# Electrocardiograms were recorded using an Auto Electrocardiogram (ECG-9130P, Nihon Kohden Corporation, Japan). Recordings were taken from each dog, while conscious, every 2 weeks from week-1. Leads I, II, III, aVR, aVL and aVF were utilized. The electrocardiography (ECG) parameters included heart rate, PR, QRS and QT interval, and QRS and T wave amplitudes. As the PQ and QT intervals vary with heart rate, they were adjusted to an RR-interval of 500 ms, corresponding to a heart rate of 120 bpm using the following equation: QT500 = QT – 0.084×(RR – 500).
# [8] = test system: beagle dogs; assay: Clinical chemistry in the 13-week repeated-dose dog study; assay type: in vivo
# Experimental: as §1, §2
# [9] = test system: Dogs; parameters: method as in PMID 8053022, PMID 8053028, PMID 7943542; details: for 4 weeks; cited from earlier work
# [10] = week 2 until week 10 post-treatment, vs control groups (p<0.05)
# [11] = Week 4, 6 mg kg^-1 per day (ART p.o., ARM i.m.)
# [12] = Week 8, 6 mg kg^-1 per day (ART p.o., ARM i.m.)
# [13] = Week 13, 6 mg kg^-1 per day (ART p.o., ARM i.m.)
# [14] = Week 17 (after 4-week recovery)
# [15] = both treated groups, no significant differences
# [16] = Week 13, females, 6 mg kg^-1 per day
structure (smiles),measurement,setting,value
"C[C@H]1[C@H](OC(=O)CCC(=O)O)O[C@@H]2O[C@@]3(C)CC[C@H]4[C@H](C)CC[C@@H]1[C@@]24OO3 [ART, artesunate]","ultra-structural findings in hepatocytes, myocardial cells and proximal tubules in the kidney",[1],Mitochondrial bending and distortion and swollen vacuoles
same,Hematology: Hb,"[2]; Week 4, 6 mg kg^-1 per day","↓Hct, ↓Hb"
same,Hematology: Hct,"[2]; Week 4, 6 mg kg^-1 per day","↓Hct, ↓Hb"
same,Hematology: Hb,"[2]; Week 8, 6 mg kg^-1 per day","↓Hct, ↓Hb, ↓MCV"
same,Hematology: Hct,"[2]; Week 8, 6 mg kg^-1 per day","↓Hct, ↓Hb, ↓MCV"
same,Hematology: MCV,"[2]; Week 8, 6 mg kg^-1 per day","↓Hct, ↓Hb, ↓MCV"
same,Hematology: Hb,"[2]; Week 13, 6 mg kg^-1 per day","↓Hct, ↓Hb"
same,Hematology: Hct,"[2]; Week 13, 6 mg kg^-1 per day","↓Hct, ↓Hb"
same,MO%,"[2]; males and females, after weeks 2 and 4 (p<0.05)",significant increases
same,Hb levels,[2]; week 2,corresponding decrease
same,RBC counts,[2]; week 2,decrease
same,LY%,[2]; [10],decreased
same,NE%,[2]; [10],significantly increased
same,WBC count,[2]; [10],significantly increased
same,decline of plasma concentrations,[3],declined much faster after oral administration
same,AUC,"[4]; week 8, read-out: AUC8w",580 ± 211 ng·h/mL
same,AUC,"[4]; week four, read-out: AUC4w",1270 ± 539 ng·h/mL
same,AUC(0-t),[4]; read-out: AUC93D,729 ± 440 ng·h/mL
same,solubility character,[5],water soluble
same,neurotoxicity,[6]; 6 mg kg^-1 per day p.o. for 13 weeks,not observed
same,Cardiac conduction system foci (dogs affected/examined),[6]; [11],0
same,Extramedullary hematopoiesis (dogs affected/examined),[6]; [11],3/4
same,Hepatocyte necrosis (dogs affected/examined),[6]; [11],0
same,Inhibition of erythropoiesis (dogs affected/examined),[6]; [11],2/4
same,Neuronal necrosis (dogs affected/examined),[6]; [11],0
same,Tubular cell degeneration (dogs affected/examined),[6]; [11],2/4
same,Cardiac conduction system foci (dogs affected/examined),[6]; [12],1/4
same,Extramedullary hematopoiesis (dogs affected/examined),[6]; [12],1/4
same,Hepatocyte necrosis (dogs affected/examined),[6]; [12],0
same,Inhibition of erythropoiesis (dogs affected/examined),[6]; [12],0
same,Neuronal necrosis (dogs affected/examined),[6]; [12],0
same,Tubular cell degeneration (dogs affected/examined),[6]; [12],3/4
same,Cardiac conduction system foci (dogs affected/examined),[6]; [13],2/4
same,Extramedullary hematopoiesis (dogs affected/examined),[6]; [13],0
same,Hepatocyte necrosis (dogs affected/examined),[6]; [13],0
same,Inhibition of erythropoiesis (dogs affected/examined),[6]; [13],0
same,Neuronal necrosis (dogs affected/examined),[6]; [13],0
same,Tubular cell degeneration (dogs affected/examined),[6]; [13],0
same,Cardiac conduction system foci (dogs affected/examined),[6]; [14],0
same,Extramedullary hematopoiesis (dogs affected/examined),[6]; [14],0
same,Hepatocyte necrosis (dogs affected/examined),[6]; [14],0
same,Inhibition of erythropoiesis (dogs affected/examined),[6]; [14],0
same,Neuronal necrosis (dogs affected/examined),[6]; [14],0
same,Tubular cell degeneration (dogs affected/examined),[6]; [14],1/4
same,histological examination of sternal bone marrow,[6]; [15],mild inhibition of erythropoiesis and a decreased count of mature erythrocytes
same,spleen histology,[6]; [15],extramedullary hematopoiesis was observed in the spleen
same,histopathological changes in the kidneys,[6]; vs control groups,tubular epithelium vacuolation and necrosis
same,heart rate during treatment,[7],statistically significant decrease
same,Clinical chemistry (overall),"[8]; Week 8, 6 mg kg^-1 per day",- (“-” = No effect)
same,Clinical chemistry: Alb(F),[8]; [16],"↓TP(F), ↓Alb(F)"
same,Clinical chemistry: TP(F),[8]; [16],"↓TP(F), ↓Alb(F)"
same,serum albumin levels,[8]; weeks 10 and 12,significant decrease
"C[C@H]1[C@@H](O)O[C@@H]2O[C@@]3(C)CC[C@H]4[C@H](C)CC[C@@H]1[C@@]24OO3 [DHA, dihydroartemisinin]",decline of plasma concentrations,[3],declined much faster after oral administration
"CCO[C@H]1O[C@@H]2O[C@@]3(C)CC[C@H]4[C@H](C)CC[C@@H]([C@H]1C)[C@@]24OO3 [ARE, arteether]",solubility character,[5],fat soluble
same,calculated average minimal daily dose necessary to produce toxicity observable by histopathology,[9],6 mg kg^−1
